In patent publication US8653043B2, “Enhanced neoglycosides through neoglycosylation and methods of use thereof” (Wisconsin Alumni Research Foundation, priority 2009, dated 2014):

What was measured:
human cancer cell lines = experiment: Cytotoxicity assay (calcein AM / CellTiter-Glo) in carcinoma cell lines; assay type: cell-based; conditions: for improvement of cytotoxic activity over the parent natural product: versus parent 1, breast, colorectal, lung and prostate carcinoma lines; for potency improvement of amide-linked versus ester-linked neoglycoside: ABA compound compared with ester analog bearing the same sugar; for cytotoxic potency compared to parent 1: in one or more cell lines, comparison with betulinic acid (1)
Procedure: The cytoxicity of the library members was assessed in seven human cancer cell lines representing a broad range of carcinomas including breast, colorectal, CNS, lung and prostate.
The cytoxicity of ABA1-5 was evaluated in human cell lines of breast, colorectal, lung and prostate carcinomas.
Testing was performed by the Keck-UWCCC Small Molecule Screening Facility (Madison, Wis.). Carcinoma cell lines were maintained and harvested as previously reported, along with compound handling and assay set up.^21 Cells were plated in 50 μL volumes in 384-well clear bottom tissue culture plates. Serial dilutions of 30 mM DMSO compound stock solutions were done in 96-well plates using a BioTek Precision XS liquid handler (Winooski, Vt.) to a concentration 100× greater than that of the most dilute assay. Final dilutions were performed in a 384-well plate in quadruplicate using a Beckman-Coulter Biomek FX liquid handler with a 384 channel pipetting head (Fullerton, Calif.) and were stored at −20° C. when not in use. Compounds were then added to the culture plates by the Biomek FX handler and were incubated at 37° C. for 72 h. The calcein AM reagent (acetoxymethyl ester; 30 μL, 10 μM) was then added, the cells were incubated for 30 m at 37° C., and plates were read for fluorescent emission (535 nm). Cell titer-glo reagent (15 μL; Promega Corp., Madison, Wis.) was added and the plates incubated for 10 m at room temperature with gentle agitation to lyse the cells. Each plate was reexamined for luminescence to verify inhibition. IC50 values for cytotoxicity were determined using XLift 4.2 as previously reported.^21

[1] = tested on: HIV-1 virus (IIIB strain); experiment: Anti-HIV-1 cytoprotection (CPE) assay in CEM-SS cells; assay type: cell-based; conditions: 1 μM; HIV-1 IIIB-infected CEM-SS cells
Procedure: To assess the corresponding impact of differential glycosylation upon antiviral activity, the entire set of compounds was subsequently tested in a single dose (10 μM) anti-HIV-1 assay against CEM-SS cells (i.e., CD4+ T lymphocytes) infected with the IIIB strain of HIV-1. Compound efficacy was determined by the percent increase of cytoprotective effect (CPE), which is prevention of intercellular virus replication, over untreated HIV-1-infected cells.
Both cells and virus were mixed with compound (10 μM & 1 μM for ABA1-5 and […] for all others) in triplicate in 96-well plates and incubated for six days at 37° C. Compound cytoprotection and cytotoxicity were evaluated using MTS tetrazolium dye (Promega Corp., Madison, Wis.) as previously reported.^23 Each assay plate used the following controls: cells only, cells/virus, cells/compound, compound only. The reverse transcriptase inhibitor AZT and protease inhibitor Indinavir were included as positive controls.

Row | Compound | improvement of cytotoxic activity over the parent natural product (human cancer cell lines) | cytotoxic potency compared to parent 1 (human cancer cell lines) | further results
1 | C=C(C)[C@@H]1CC[C@]2(C(=O)O)CC[C@]3(C)[C@H](CC[C@@H]4[C@@]5(C)CC[C@H](NC(=O)CN(OC)[C@@H]6O[C@H](CO)[C@@H](O)[C@@H](O)[C@@H]6O)C(C)(C)[C@@H]5CC[C@]43C)[C@@H]12 [ABA1, (3S)-N-(N′-Methoxy-N′-β-D-altrosylglycyl)betulinic acid] | ~2 fold |  | 
2 | C=C(C)[C@@H]1CC[C@]2(C(=O)O)CC[C@]3(C)[C@H](CC[C@@H]4[C@@]5(C)CC[C@H](NC(=O)CN(OC)C6OC[C@H](O)[C@H](O)[C@@H]6O)C(C)(C)[C@@H]5CC[C@]43C)[C@@H]12 (stereo partly drawn) [ABA4, (3S)-N-(N′-Methoxy-N′-L-ribosylglycyl)betulinic acid] | ~2 fold |  | potency improvement of amide-linked versus ester-linked neoglycoside (human cancer cell lines): ≥ 6 fold
3 | C=C(C)[C@@H]1CC[C@]2(C(=O)O)CC[C@]3(C)[C@H](CC[C@@H]4[C@@]5(C)CC[C@H](NC(=O)CN(OC)C6OC[C@@H](O)[C@H](O)[C@H]6O)C(C)(C)[C@@H]5CC[C@]43C)[C@@H]12 (stereo partly drawn) [ABA5, (3S)-N-(N′-Methoxy-N′-D-xylosylglycyl)betulinic acid] | ~2 fold |  | potency improvement of amide-linked versus ester-linked neoglycoside (human cancer cell lines): ≤ 2 fold
4 | C=C(C)[C@@H]1CC[C@]2(C(=O)O)CC[C@]3(C)[C@H](CC[C@@H]4[C@@]5(C)CC[C@H](OC(=O)CN(OC)[C@@H]6O[C@H](CO)[C@@H](O)[C@@H](O)[C@H]6O)C(C)(C)[C@@H]5CC[C@]43C)[C@@H]12 [BA1, (3S)-O-(N-Methoxy-N-β-D-allosylglycyl)betulinic acid] |  | equipotent | 
5 | C=C(C)[C@@H]1CC[C@]2(C(=O)O)CC[C@]3(C)[C@H](CC[C@@H]4[C@@]5(C)CC[C@H](OC(=O)CN(OC)C6O[C@@H](C)[C@@H](O)[C@@H](O)[C@@H]6O)C(C)(C)[C@@H]5CC[C@]43C)[C@@H]12 (stereo partly drawn) [BA9, (3S)-O-(N-Methoxy-N-L-fucosylglycyl)betulinic acid] |  | equipotent | 
6 | C=C(C)[C@@H]1CC[C@]2(C(=O)O)CC[C@]3(C)C(CCC4[C@@]5(C)CC[C@H](OC(=O)CN(OC)C6O[C@@H](C)[C@H](O)[C@@H](O)[C@H]6O)C(C)(C)C5CC[C@]43C)C12 (stereo partly drawn) [BA27] |  |  | IC50 (human cancer cell lines; ester-linked BA series, 72 h incubation, cell line not specified / at least one cell line): ≥ 25 µM
7 | C=C(C)[C@@H]1CC[C@]2(C(=O)O)CC[C@]3(C)C(CCC4[C@@]5(C)CC[C@H](OC(=O)CN(OC)[C@H]6OC[C@H](O)[C@@H](O)[C@@H]6O)C(C)(C)C5CC[C@]43C)C12 (stereo partly drawn) [BA32, (3S)-O-(N-Methoxy-N-β-L-xylosylglycyl)betulinic acid] |  | equipotent | 
8 | C=C(C)[C@@H]1CC[C@]2(C(=O)O)CC[C@]3(C)[C@H](CCC4[C@@]5(C)CC[C@H](OC(=O)CNOC)C(C)(C)C5CC[C@]43C)C12 (stereo partly drawn) [compound 7, (3S)-O-(N-Methoxyglycyl)betulinic acid] |  | relatively similar potencies | 
9 | C=C(C)[C@@H]1CC[C@]2(C(=O)O)CC[C@]3(C)[C@H](CC[C@@H]4[C@@]5(C)CC[C@H](NC(=O)CNOC)C(C)(C)[C@@H]5CC[C@]43C)[C@@H]12 [compound 10, (3S)-N-(N′-Methoxyglycyl)aminobetulinic acid] |  | relatively similar potencies | increase in CPE [1]: no noticeable activity
